Like-named read-outs stand apart in the source and are kept apart here.
Key:
[1] = system: T1, ACAT (Acyl CoA-Cholesterol Acyltransferase); test: In-vitro determination of inhibition of ACAT in hepatic microsomes, [14C]-Palmitoyl CoA substrate; format: biochemical, Wistar rats; details: rat hepatic microsomes
T1 construct: other: 10^−4 M; rat hepatic microsomes; other: 3 × 10^−5 M; other: 10^−5 M; ot
Description: I. In-Vitro Determination of Inhibition of ACAT (Acyl CoA-Cholesterol Acyltransferase)
The in-vitro determination of the inhibition of the enzyme ACAT by the compounds of the invention is carried out in principle as described in the publication of Largis EE, Wang CH, DeVries VG and Schaffer SA (1989), “A Novel inhibitor of ACAT-catalyzed cholesterol esterification and cholesterol absorption”, J. Lipid Res. 30, 681-689, (1989), whereby hepatic microsomes are used. The radio-substrate used is [^14C]-Palmitoyl CoA. The respective parts of the description are hereby incorporated by reference and forms part of the present disclosure.
Briefly hepatic microsomes were prepared from the Wistar rats. Enzyme inhibition experiments were performed in presence of 18 μM [^14C]-Palmitoyl CoA as substrate. The vehicle used was 1% DMSO. Compounds to be tested were present at various concentrations and the incubation buffer used was 0.2 M Phosphate buffer, pH 7.4 at 25° C. After a 15 minutes preincubation period at 37° C. an incubation period of 10 minutes at 37° C. followed. Quantification of [^14C]Cholesterol ester was done by column chromatography.
The inhibition of the enzyme ACAT by the inventive substituted pyrazoline compounds was determined as described above.

[2] = target: ACAT (Acyl CoA-Cholesterol Acyltransferase); details: reported value for the reference compound; cited from earlier work
[3] = 3 × 10^−5 M, second table (other experiment)
[4] = 3 × 10^−6 M, second table (other experiment)
[5] = 10^−4 M, second table (other experiment)
[6] = 10^−5 M, second table (other experiment)
[7] = second table (other experiment)

SMILES | ACAT Inhibition (%) at various concentration of example ([1]; 3 × 10^−5 M, first table) [%] | ACAT Inhibition (%) at various concentration of example ([1]; 3 × 10^−6 M, first table) [%] | ACAT Inhibition (%) at various concentration of example ([1]; 10^−4 M, first table) [%] | ACAT Inhibition (%) at various concentration of example ([1]; 10^−5 M, first table) [%] | ACAT Inhibition (%) at various concentration of example ([1]; 10^−6 M, first table) [%] | IC50 ([1]; first table) [µM] | ACAT Inhibition (%) at various concentration of example [1, 3] [%] | ACAT Inhibition (%) at various concentration of example [1, 4] [%] | ACAT Inhibition (%) at various concentration of example [1, 5] [%] | ACAT Inhibition (%) at various concentration of example [1, 6] [%] | IC50 [1, 7] [µM] | IC50 [2] [µM] | ACAT Inhibition (%) at various concentration of example ([1]; 3 × 10^−7 M, first table) [%]
CC1(c2ccc(Cl)cc2)CC(C(=O)NC2CCCCCC2)=NN1c1ccc(Cl)cc1Cl (stereo not shown) [Example 1, 5-(4-Chloro-phenyl)-1-(2,4-dichloro-phenyl)-5-methyl-4,5-dihydro-1H-pyrazole-3-carboxylic acid cycloheptylamide] | 54 | 14 | 62 | 46 | −1 | 27.5 |  |  |  |  |  |  | 
CC1(c2ccc(Cl)cc2)CC(C(=O)NN2CCCCC2)=NN1c1ccc(Cl)cc1Cl.Cl (stereo not shown) [Example 3, 5-(4-Chloro-phenyl)-1-(2,4-dichloro-phenyl)-5-methyl-4,5-dihydro-1H-pyrazole-3-carboxylic acid piperidin-1-ylamide; hydrochloride] | 79 | 30 | 92 | 56 | 10 | 7.63 | 85 | 34 | 98 | 62 | 5.96 |  | 
CC[C@H](C)C(=O)O[C@H]1C[C@@H](C)C=C2C=C[C@H](C)[C@H](CC[C@@H]3C[C@@H](O)CC(=O)O3)[C@H]21 [Lovastatin, reference compound] |  |  |  |  |  | 22.7 |  |  |  |  | 12.5 | 29 | 
CC1(c2ccc(Cl)cc2)CC(C(=O)NN2CCCCCC2)=NN1c1ccc(Cl)cc1Cl.Cl (stereo not shown) [Example 2, 5-(4-Chloro-phenyl)-1-(2,4-dichloro-phenyl)-5-methyl-4,5-dihydro-1H-pyrazole-3-carboxylic acid azepan-1-ylamide; hydrochloride] | 91 | 32 |  | 68 | 20 | 4.93 | 94 | 37 | 98 | 75 | 4.39 |  | 10

— patent US20100069364A1, “SUBSTITUTED PYRAZOLINE COMPOUNDS WITH ACAT INHIBITION ACTIVITY, THEIR PREPARATION AND USE AS MEDICAMENTS” (LABORATORIOS DEL DR. ESTEVE, S.A., priority 2007, published 2010)
